Measurements as given in patent US11780826B2 (Amgen Inc., priority 2017, dated 2023).

Tested on: Bovine cardiac myofibrils
Test: In vitro model of dose-dependent myofibril ATPase modulation (AC1.4, pyruvate kinase/lactate dehydrogenase-coupled ATPase assay at pCa25)
Assay type: biochemical
Conditions: concentration at which ATPase activity was 1.4-fold higher than the bottom of the dose curve, mean of a minimum of two independent tests
Method in brief: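 ATP turnover tracked as NADH absorbance loss at 340 nm, coupled via pyruvate kinase/lactate dehydrogenase, with 1 mM ATP, 2 mM MgCl2 and 12 mM K-PIPES at pH 6.80 (22° C) under EGTA/CaCl2 calcium buffering. Substrate was detergent-treated bovine cardiac myofibrils; 4-parameter curve fit, AC1.4 averaged over at least two runs.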

Row | AC1.4 | Structure (SMILES)
1 | 6.7333 µM | CC1(O)CN(S(=O)(=O)N2CCC[C@H](C(=O)N3CCC[C@@H]3C(=O)NCc3ccc(C(F)(F)F)cc3)C2)C1 [Example 730, 1 (((3S)-1-((3-hydroxy-3-methyl-1-azetidinyl)sulfonyl)-3-piperidinyl)carbonyl)-N-(4-(trifluoromethyl)benzyl)-D-prolinamide]
2 | 7.1615 µM | Cc1ccc(C(F)(F)F)c(CNC(=O)[C@H]2CCCN2C(=O)[C@H]2CCCN(S(=O)(=O)N3CC(C#N)C3)C2)c1 [Example 741, 1-(((3S)-1-((3-cyano-1-azetidinyl)sulfonyl)-3-piperidinyl)carbonyl)-N-(5-methyl-2-(trifluoromethyl)benzyl)-D-prolinamide]
3 | 1.2 µM | CC1(O)CN(S(=O)(=O)c2cccc(C(=O)N3CCC[C@@H]3C(=O)NCc3ccc(C(F)(F)F)cc3F)c2)C1 [Example 368, N-(2-fluoro-4-(trifluoromethyl)benzyl)-1-(3-((3-hydroxy-3-methyl-1-azetidinyl)sulfonyl)benzoyl)-D-prolinamide]
4 | 0.6615 µM | CS(=O)(=O)c1cccc(C(=O)N2[C@@H](C(=O)N[C@@H](c3ccc(Cl)c(F)c3)C3COC3)C[C@H]3C[C@H]32)c1 [Example 264, (1R,3R,5R)-N-((R)-(4-chloro-3-fluorophenyl)(3-oxetanyl)methyl)-2-(3-(methylsulfonyl)benzoyl)-2-azabicyclo[3.1.0]hexane-3-carboxamide]
5 | 0.1363 µM | N#CC1CN(S(=O)(=O)N2CCC[C@H](C(=O)N3C[C@H]4C[C@H]4[C@@H]3C(=O)NCc3ccc(C(F)(F)F)cc3)C2)C1 [Example 90, (1R,2R,5S)-3-(((3S)-1-((3-cyano-1-azetidinyl)sulfonyl)-3-piperidinyl)carbonyl)-N-(4-(trifluoromethyl)benzyl)-3-azabicyclo[3.1.0]hexane-2-carboxamide]
6 | 0.4927 µM | O=C(NCc1ccc(C(F)(F)F)cc1)[C@H]1CCCN1C(=O)[C@H]1CCCN(S(=O)(=O)N2CC(c3ccon3)C2)C1 [Example 227, 1-(((3S)-1-((3-(1,2-oxazol-3-yl)-1-azetidinyl)sulfonyl)-3-piperidinyl)carbonyl)-N-(4-(trifluoromethyl)benzyl)-D-prolinamide]
7 | 0.214 µM | Cc1ccc(CNC(=O)[C@H]2CCCN2C(=O)[C@H]2CCCN(S(=O)(=O)N3CC(C#N)C3)C2)cc1Cl [Example 130, N-(3-chloro-4-methylbenzyl)-1-(((3S)-1-((3-cyano-1-azetidinyl)sulfonyl)-3-piperidinyl)carbonyl)-D-prolinamide]
8 | 0.3906 µM | C#CC1(O)CN(S(=O)(=O)N2CCC[C@H](C(=O)N3CCC[C@@H]3C(=O)NCc3ccc(C(F)(F)F)cc3F)C2)C1 [Example 196, 1 (((3S)-1-((3-ethynyl-3-hydroxy-1-azetidinyl)sulfonyl)-3-piperidinyl)carbonyl)-N-(2-fluoro-4-(trifluoromethyl)benzyl)-D-prolinamide]
9 | 1.4335 µM | CS(=O)(=O)c1cc(C(=O)N2CCC[C@@H]2C(=O)N[C@@H](c2cc(F)c(Cl)cc2F)C2CC2)ccn1 [Example 421, N-((R)-(4-chloro-2,5-difluorophenyl)(cyclopropyl)methyl)-1-((2-(methylsulfonyl)-4-pyridinyl)carbonyl)-D-prolinamide]
10 | 0.2767 µM | CN(Cc1ccc(Cl)cc1)C(=O)C1CCCN1C(=O)c1cccc(S(=O)(=O)N2CC(C#N)C2)c1 (stereo not drawn) [Example 162, N-(4-chlorobenzyl)-1-((3-((3-cyano-1-azetidinyl)sulfonyl)phenyl)carbonyl)-N-methyl-prolinamide]
11 | 4.727 µM | CC1(O)CN(S(=O)(=O)N2CCC[C@H](C(=O)N3CCC[C@@H]3C(=O)NCc3ccc(C(F)(F)F)cc3F)C2)C1 [Example 669, N-(2-fluoro-4-(trifluoromethyl)benzyl)-1-(((3S)-1-((3-hydroxy-3-methyl-1-azetidinyl)sulfonyl)-3-piperidinyl)carbonyl)-D-prolinamide]
12 | 9.448 µM | O=C(NCc1ccc(C(F)(F)F)nc1)[C@H]1CCCCN1C(=O)c1cccc(S(=O)(=O)N2CC(F)(F)C2)c1 [Example 798, (2R)-1-((3-((3,3-difluoro-1-azetidinyl)sulfonyl)phenyl)carbonyl)-N-((6-(trifluoromethyl)-3-pyridinyl)methyl)-2-piperidinecarboxamide]
13 | 2.6285 µM | N#CC1CN(S(=O)(=O)N2CCC[C@H](C(=O)N3CCC[C@@H]3C(=O)NCc3cc(Cl)cc(C(F)(F)F)c3)C2)C1 [Example 532, N-(3-chloro-5-(trifluoromethyl)benzyl)-1-(((3S)-1-((3-cyano-1-azetidinyl)sulfonyl)-3-piperidinyl)carbonyl)-D-prolinamide]
14 | 9.817 µM | CS(=O)(=O)c1cc(C(=O)N2CCC[C@@H]2C(=O)N[C@@H](c2ccc(C(F)(F)F)cc2F)C2CC2)ccc1N [Example 805, 1-(4-amino-3-(methylsulfonyl)benzoyl)-N-((R)-cyclopropyl(2-fluoro-4-(trifluoromethyl)phenyl)methyl)-D-prolinamide]
15 | 2.789 µM | Cc1cc(C(=O)N2[C@@H](C(=O)N[C@@H](c3ccc(C(F)(F)F)cc3F)C3COC3)C[C@H]3C[C@H]32)c(NCCO)cn1 [Example 541, (1R,3R,5R)-N-((R)-(2-fluoro-4-(trifluoromethyl)phenyl)(3-oxetanyl)methyl)-2-((5-((2-hydroxyethyl)amino)-2-methyl-4-pyridinyl)carbonyl)-2-azabicyclo[3.1.0]hexane-3-carboxamide]
16 | 8.423 µM | CS(=O)(=O)c1cc(C(=O)N2[C@@H](C(=O)N[C@@H](c3cc(F)c(Cl)cc3F)C3CC3)C[C@@H]3C[C@@H]32)ccn1 [Example 779, (1S,3R,5S)-N-((R)-(4-chloro-2,5-difluorophenyl)(cyclopropyl)methyl)-2-((2-(methylsulfonyl)-4-pyridinyl)carbonyl)-2-azabicyclo[3.1.0]hexane-3-carboxamide]
17 | 0.8613 µM | CS(=O)(=O)c1cccc(C(=O)N2CC(F)(F)C[C@@H]2C(=O)N[C@@H](c2ccc(C(F)(F)F)cc2F)C2CC2)c1 [Example 320, N-((R)-cyclopropyl(2-fluoro-4-(trifluoromethyl)phenyl)methyl)-4,4-difluoro-1-(3-(methylsulfonyl)benzoyl)-D-prolinamide]
18 | 0.4116 µM | CS(=O)(=O)c1ccnc(C(=O)N2[C@@H](C(=O)N[C@@H](c3cc(F)c(Cl)cc3F)C3CC3)C[C@H]3C[C@H]32)c1 [Example 202, (1R,3R,5R)-N-((R)-(4-chloro-2,5-difluorophenyl)(cyclopropyl)methyl)-2-((4-(methylsulfonyl)-2-pyridinyl)carbonyl)-2-azabicyclo[3.1.0]hexane-3-carboxamide]
19 | 4.5245 µM | N#CC1CN(S(=O)(=O)N2CCC[C@H](C(=O)N3CCC[C@@H]3C(=O)NCc3ccc(F)cc3C(F)(F)F)C2)C1 [Example 652, 1-(((3S)-1-((3-cyano-1-azetidinyl)sulfonyl)-3-piperidinyl)carbonyl)-N-(4-fluoro-2-(trifluoromethyl)benzyl)-D-prolinamide]
20 | 0.2158 µM | N#CC1CN(S(=O)(=O)c2cccc(C(=O)N3CCC[C@@H]3C(=O)NCc3ccc(C(F)(F)F)nc3)c2)C1 [Example 131, 1-((3-((3-cyano-1-azetidinyl)sulfonyl)phenyl)carbonyl)-N-((6-(trifluoromethyl)-3-pyridinyl)methyl)-D-prolinamide]
21 | 8.015 µM | CS(=O)(=O)c1cncc(C(=O)N2CC(F)(F)C2C(=O)N[C@@H](c2cc(F)c(C(F)(F)F)cc2F)C2CC2)c1 (stereo partly drawn) [Example 767, N-((R)-cyclopropyl(2,5-difluoro-4-(trifluoromethyl)phenyl)methyl)-3,3-difluoro-1-(5-(methylsulfonyl)nicotinoyl)azetidine-2-carboxamide]
22 | 1.5515 µM | CC[C@@H](NC(=O)[C@H]1CCCN1C(=O)c1cccc(S(C)(=O)=O)c1)c1cc(F)c(Cl)cc1F [Example 453, N-((1R)-1-(4-chloro-2,5-difluorophenyl)propyl)-1-(3-(methylsulfonyl)benzoyl)-D-prolinamide]
23 | 5.5132 µM | Cc1cncc(C(=O)N2[C@@H](C(=O)N[C@@H](c3cc(F)c(Cl)cc3F)C3COC3)C[C@H]3C[C@H]32)c1 [Example 695, (1R,3R,5R)-N-((R)-(4-chloro-2,5-difluorophenyl)(3-oxetanyl)methyl)-2-((5-methyl-3-pyridinyl)carbonyl)-2-azabicyclo[3.1.0]hexane-3-carboxamide]
24 | 3.788 µM | O=C(N[C@@H](c1ccc(C(F)(F)F)cc1F)C1COC1)[C@H]1C[C@H]2C[C@H]2N1C(=O)c1cncc(C2CC2)c1 [Example 611, (1R,3R,5R)-2-((5-cyclopropyl-3-pyridinyl)carbonyl)-N-((R)-(2-fluoro-4-(trifluoromethyl)phenyl)(3-oxetanyl)methyl)-2-azabicyclo[3.1.0]hexane-3-carboxamide]
25 | 0.8898 µM | NS(=O)(=O)c1cccc(C(=O)N2C[C@H]3C[C@H]3[C@@H]2C(=O)N[C@@H](c2cc(F)c(Cl)cc2F)C2CC2)c1 [Example 340, (1R,2R,5S)-N-((R)-(4-chloro-2,5-difluorophenyl)(cyclopropyl)methyl)-3-(3-sulfamoylbenzoyl)-3-azabicyclo[3.1.0]hexane-2-carboxamide]
26 | 1.2725 µM | CCNc1cnc(C)cc1C(=O)N1[C@@H](C(=O)N[C@@H](c2ccc(C(F)(F)F)cc2F)C2CC2)C[C@H]2C[C@H]21 [Example 383, (1R,3R,5R)-N-((R)-cyclopropyl(2-fluoro-4-(trifluoromethyl)phenyl)methyl)-2-((5-(ethylamino)-2-methyl-4-pyridinyl)carbonyl)-2-azabicyclo[3.1.0]hexane-3-carboxamide]
27 | 2.9265 µM | COc1ccc(CNC(=O)[C@H]2CCCN2C(=O)[C@H]2CCCN(S(=O)(=O)N3CC(C#N)C3)C2)c(F)c1 [Example 557, 1-(((3S)-1-((3-cyano-1-azetidinyl)sulfonyl)-3-piperidinyl)carbonyl)-N-(2-fluoro-4-methoxybenzyl)-D-prolinamide]
